Patent US10517839B2, “Mast cell inhibition in diseases of the retina and vitreous” (Cornell University, priority 2008, dated 2019)
“Also recorded” adds a separate entry of the source.

What was measured:
VEGF = VEGF levels in retinas of STZ-injected diabetic rats; assay type: in vivo, rat; conditions: for effect on VEGF levels in retina (in words): STZ-induced diabetic rats, Na-Cromolyn 4% topical
Procedure: The STZ-induced diabetic rat model (Long Evans strain) (40 mg/kg body wt; 28 days) was used for these studies. To evaluate the effect of a mast cell stabilizer on VEGF levels, STZ-injected rats were treated with the mast cell stabilizer, Na-Cromolyn (4%), topically administered to the eyes (2 drops b.i.d.). VEGF levels were measured in the retinas of STZ-injected diabetic rats treated with Na-Cromolyn and these levels were compared to VEGF levels in the retinas of control rats and in the retinas of STZ-injected diabetic rats that received no Na-Cromolyn. Control rats received no streptozotocin (STZ) and no Na-Cromolyn.

[1] = test system: STZ-induced diabetic rat model (Long Evans strain); experiment: Fluorescein angiography of retinal vascular permeability; assay type: in vivo; conditions: for leakage/pooling of fluorescein dye out of retinal vessels: 2 drops b.i.d.; for retinal vascular leakiness (fluorescein) over time: STZ Long-Evans rats, 14 and 28 days, n=3, FIG. 14
Procedure: To assess vascular leakage in these diabetic rats, fluorescein retinal angiography was performed weekly over a 2-month time course in the Long-Evans rats. In some experiments, rats were treated with the mast cell stabilizer, Na-cromolyn, topically administered to the eyes. The structure of Na-Cromolyn is shown below.
Angiography was performed on an upright fluorescence microscope using a long working distance lens. At the 2-month end point, rats were sacrificed and the eyes were enucleated, dissected free of cornea and extra-orbital connective tissue, and fixed in 4% paraformaldehyde.
The STZ-induced diabetic rat model (Long Evans strain) (40 mg/kg body wt; 28 days) was used for these studies. Fluorescein angiography was performed to assess the permeability of the retinal vasculature in these rats. The pigmented eyes of this strain facilitate angiography. Diabetic rats were treated with the mast cell stabilizer Na-cromolyn and the vascular permeability of these treated rats was compared to diabetic rats that were not treated with Na-cromolyn.
Weekly angiograms were also performed on control rats, STZ-injected, and STZ-injected rats treated with the mast cell stabilizer, Na cromolyn […], topically administered to the eyes (2 drops b.i.d.).
The STZ-induced diabetic rat model (Long Evans strain) (40 mg/kg body wt; 28 days) was used for fluorescein angiography experiments. The pigmented eyes of this strain facilitate angiography. To evaluate the role of mast cells, weekly angiograms were performed on control rats, STZ-injected, and STZ-injected rats treated with the mast cell stabilizer, Na cromolyn (4%), topically administered to the eyes (2 drops b.i.d.).

STZ-induced diabetic rat = experiment: Retinal whole mounts stained with FITC-griffonia lectin (tortuosity of retinal microvasculature); assay type: in vivo; conditions: cromolyn-treated diabetic rat, retinal whole mount
Procedure: To induce a model of type-I diabetes, Sprague Dawley and Long-Evans rats were injected with a single dose of streptozotocin (STZ) (60 mg/kg) and maintained for 2 months. Hyperglycemia was confirmed by monitoring blood from tail bleeds. To assess vascular leakage in these diabetic rats, fluorescein retinal angiography was performed weekly over a 2-month time course in the Long-Evans rats. In some experiments, rats were treated with the mast cell stabilizer, Na-cromolyn, topically administered to the eyes. […] This Example describes an analysis of the retinal vasculature from fixed eyes of control (A), diabetic (B), and cromolyn-treated diabetic (C) rats.

[2] = test system: STZ-induced hyperglycemic Long-Evans rats; experiment: Evan's Blue dye leakage across the blood-retinal barrier; assay type: in vivo, rat; conditions: Na cromolyn 4% topical, 2 drops twice a day, day 15 post STZ, n=4 rats
Text: In order to verify this finding, additional experiments were designed to measure leakiness across the blood-retinal barrier of STZ-induced hyperglycemic Long-Evans rats and to determine whether mast cell stabilization reduces vascular permeability in the hyperglycemic state. Blood glucose levels were monitored weekly to verify the hyperglycemic state. The three groups of animals were as follows: untreated hyperglycemic, cromolyn-treated hyperglycemic, and normo-glycemic (vehicle injected). The hyperglycemic group of rats was treated with the mast cell stabilizer (Na cromolyn, 4%) by topical administration to the eyes (2 drops twice a day), as described above.
Measurements of the Evan's Blue dye concentration across the blood-retinal barrier were performed on day 15 post±STZ-injection. […] 100 μl of the filtrate was then measured in a spectrophotometer at 620 nm, the dye's absorbance maximum. The dye's absorbance minimum, 740 nm, served as a reference wavelength. Dilutions (1:1000 in formamide) of the collected plasma were also measured spectrophotometrically at this time. Sample absorbance measurements were converted to concentrations using absorbance measurements from known concentrations of Evan's Blue in formamide. Dye leakage from blood to retina was calculated as: […]

[3] = test system: isolated perfused diabetic kidneys; experiment: Flow rate of isolated perfused diabetic kidneys after mast-cell degranulation with 48/80; conditions: diabetic rat kidney; for vasoconstriction response to 48/80 compared to untreated diabetic kidney (in words): BILA 2157 in perfusate
Procedure: Mast-cell degranulation was induced with agent 48/80, which will release renin, as the inventors have previously shown, as well as numerous other mediators synthesized and stored by mast cells.
Flow rate (ml/min) was measured under constant perfusion pressure, and is plotted against time (min).
After establishing a constant flow rate, mast-cell degranulation was induced by injecting the 48/80 degranulating agent (300 μg/ml) into the renal artery (at arrow). […] However, the magnitude of this vasoconstriction response was markedly different between the two kidneys. […] Moreover, the return to baseline flow rate was much faster in the BILA2157-treated diabetic kidney (˜8 min) compared to the untreated diabetic kidney (˜40 min). The rate of the initial flow recovery was also greater in the BILA-treated diabetic kidney (0.5 mls/min/min) compared to the untreated diabetic kidney (0.3 mls/min/min). […] In situ, the time it takes to return to normal flow after an acute increase in vascular resistance can profoundly influence the extent of ischemic damage in the kidney.

HMC-1 cells = experiment: Chemotaxis of HMC-1 cells in Corning transwells; assay type: cell-based, human; conditions: transwell, p<0.05
Procedure: Chemotaxis experiments were performed with cultured human mastocytoma cells. HMC-1 cells were plated in Corning transwells consisting of inner and outer wells. The number of mast cells migrating through the insert in response to exogenous histamine±thioperamide, an H3/H4 histamine receptor […], was counted.

renin = experiment: Renin activity (ANG I formed, RIA) of HMC-1 cells before and 48 hours after siRNA transfection; assay type: cell-based, human; conditions: siRNA 50 nM, 48 hours after transfection
Procedure: Renin-specific siRNA duplexes were made based on the coding sequence of human renin between exons 2-8 (Dharmacon) (accession number M26900). The four siRNA duplexes were made against the following renin sequences:
To assess the efficacy of this siRNA approach, the activity of renin protein was measured both before siRNA transfecting and at 48 hours after transfection of the HMC-1 cells.
HMC-1 cells were seeded in 6-well plates. Cells were transfected either with: renin siRNA duplexes (50 nM), scrambled siRNA duplex (50 nM), or treated with the transfection reagent (control), and maintained for 48 hours. An aliquot of cells from each well was counted to estimate the cell number before (initial) and 48 hours after transfection (post). The ability of the siRNA duplexes to silence renin mRNA in the transfected HMC-1 cells was determined by comparing the amount of ANG I formed in the releasate pre- and post-transfection by radioimmunoassay (RIA). […] The amount of ANG I generated on each sample is expressed as pg ANG I formed/ml/hr/10^5 cells. The effect of the siRNA on the amount of renin protein produced by the cell was determined by comparing the initial and final amounts of ANG I formed (renin activity) by the releasates.

Compound: O=C([O-])c1cc(=O)c2c(OCC(O)COc3cccc4oc(C(=O)[O-])cc(=O)c34)cccc2o1.[Na+].[Na+] [Na-cromolyn, Na-Cromolyn]
- effect on VEGF levels in retina (in words) (VEGF): reduces vascular endothelial growth factor (VEGF) levels
- effect on VEGF levels in retina (in words) (VEGF; listed as Cromolyn Na): decreases vascular endothelial growth factor (VEGF) levels
- VEGF level in retina (VEGF; STZ-injected hyperglycemic rats, Na-Cromolyn 4% topical 2 drops b.i.d., 1 month, n=2): about 65 pg VEGF/ml/mg retina
- leakage/pooling of fluorescein dye out of retinal vessels ([1]; Na cromolyn 2% topical, day 28, FIG. 15): prevented dye pooling
- leakage/pooling of fluorescein dye out of retinal vessels ([1]; Na cromolyn 4% topical, weekly angiograms): prevented dye pooling
- retinal vascular leakiness (fluorescein) over time [1]: greatly diminished
- retinal vascular leakiness (fluorescein) over time ([1]; listed as cromolyn): reduces the leakage of fluorescein from retinal vessels
- tortuosity / abnormal vessel morphology of retinal microvasculature (STZ-induced diabetic rat): abnormal changes in the vessel morphology were not observed
- Evan's Blue dye leakage across the blood-retinal barrier [2]: prevented dye leakage into the retinal space; also recorded: protects against the early phase of increased vascular permeability
- Evan's Blue dye leakage across the blood-retinal barrier ([2]; listed as cromolyn Na): protective effect against increased vascular permeability

Compound: CC(C)C[C@H](O)[C@H](O)[C@H](CC1CCCCC1)NC(=O)[C@@H](CC(=O)N(CC(=O)N(C)CCc1ccccn1)CC1CCCCC1)Cc1csc(N)n1 [BILA2157]
- rate of the initial flow recovery ([3]; 100 nM BILA 2157, after 48/80): 0.5 mls/min/min
- return to baseline flow rate ([3]; 100 nM BILA 2157, after 48/80): ~8 min
- flow rate after 48/80 injection (from baseline 20 ml/min) ([3]; 100 nM BILA 2157 in perfusate, constant perfusion pressure, 48/80 300 μg/ml into renal artery): 12 mL/min
- effect on flow rate in the absence of a degranulating agent ([3]; 100 nM in perfusate): no effect on flow rate
- vasoconstriction response to 48/80 compared to untreated diabetic kidney (in words) [3]: much less vasoconstriction
- vasoconstriction response to 48/80 compared to untreated diabetic kidney (in words) ([3]; listed as BILA 2157): offsets the rate reducing effects

Compound: S=C(NC1CCCCC1)N1CCC(c2cnc[nH]2)CC1 [thioperamide]
- migration with histamine alone compared to thioperamide alone or histamine in the presence of thioperamide (HMC-1 cells): significantly more migration

Compound: NCCc1c[nH]cn1 [histamine]
- number of mast cells migrating through the insert in response to exogenous histamine (HMC-1 cells; vs control): significantly more migration

Compound: scrambled control siRNA: negative control, non-specific scrambled siRNA duplex, SEQ ID NO: 9 and 10 (chain 1 AUGUAUUGGCCUGUAUUAGUU; chain 2 CUAAUACAGGCCAAUACAUUU; listed as RNA, chemistry not given here)
- change in renin activity / amount of ANG I formed after transfection (in words) (renin): no significant decrease
